Laboratory results: patent US9540613B2, “Methods for producing insulin-secreting beta cells from human pluripotent stem cells” (Wisconsin Alumni Research Foundation, priority 2013, dated 2017)

Legend:
[1] = system: PDX1 and insulin protein expression in H1 cells; test: Flow cytometry of PDX1 and insulin protein expression at end of Stage 4; assay type: cell-based, human; details: for PDX1 and insulin double positive cells: loss of both nicotinamide and Exendin-4 from Stage 4 medium
Text: To quantify insulin and PDX1 protein expression we optimized a flow cytometry assay. […] The INS-1 cell line is an immortalized pancreatic beta cell line that expresses both PDX1 and insulin. On the bottom left, is our negative control, unstained H1 cells differentiated for 18 days. On the right, is H1 cells differentiated by the current protocol through day 18 stained with Insulin-PB and PDX1-AF488. […] Only 8-11% of the cells are PDX1 and insulin double positive.
To examine protein expression we collected cells at the end of Stage 4 and examined them by flow cytometry.
Thus, the effect of Noggin is context dependent and synergistic with nicotinamide and Exendin-4.

[2] = system: PDX1, NKX6.1, Neurogenin 3 and insulin gene expression; test: QPCR gene expression of endoderm and pancreatic markers in differentiated cells; assay type: cell-based, human; details: presence or absence of nicotinamide at Stage 3
Method: QPCR was performed at the end of Stage 4 ([…] Day 18) to examine gene expression of PDX1, a marker of pancreatic epithelium and progenitor cells, insulin, a marker of beta cells, and Sox9 which is expressed in the developing pancreatic epithelium. The gene expression is compared to undifferentiated cells collected at Day 0 and β-Actin is the internal control. […] Human Fetal Pancreas (HFP), gestation 14-20 weeks, is represented as a positive control.
In FIG. 19, the gene expression is compared to undifferentiated cells collected at Day 0 and B-Actin is the internal control. On the y axis is delta CT (instead of fold change), thus, the lower the value the greater the gene expression.
First, alterations at Stage 3 and 4 altered gene expression minimally. […] On the y axis is delta CT (instead of fold change), thus, the lower the value the greater the gene expression. […] In contrast the addition of Noggin at Stage 4, decreased PDX1 and NKX6.1 gene expression and increased Neurogenin 3 expression. There was no difference in insulin gene expression following the addition of Noggin to Stage 4.

[3] = addition of nicotinamide at Stage 3, cells at end of Stage 4

## Exendin-4: a long-acting GLP-1 agonist
[1]; loss of Exendin-4 from Stage 4 medium
  protein expression of either PDX1 or insulin: little to no difference
[1]
  PDX1 and insulin double positive cells: increases PDX1 and insulin double positive cells

## NC(=O)c1cccnc1 [nicotinamide]
[1]; [3]
  PDX1 protein expression: decreased
  double positive PDX and insulin positive cells: little difference
  insulin protein expression: increased
[1]
  PDX1 and insulin double positive cells: increases PDX1 and insulin double positive cells
[1]; loss of nicotinamide from Stage 4 medium
  protein expression: little to no loss
[2]
  gene expression (delta CT): did not alter gene expression

## FGF2: Basic fibroblast growth factor
[1]; FGF2 instead of FGF7 at Stage 2
  insulin protein expression: less insulin protein expression
